Reference: patent publication US20230095341A1, “COMPOSITIONS AND METHODS FOR TREATING NEURODEGENERATIVE, MYODEGENERATIVE, AND LYSOSOMAL STORAGE DISORDERS” (GEORGETOWN UNIVERSITY, priority 2020, published 2023)
“Also recorded” adds a separate entry of the source.

What was measured:
[1] = test system: Tauopathy rTG4510 mice expressing human P301L tau; assay: Overnight nest shredding (nesting) behavior; assay type: in vivo, mouse; details: 2.5 mg/kg I.P., three weeks
Protocol: Tauopathy rTG4510 mice (i.e., a mouse model that clinically manifest a tauopathy), expressing human P301L tau driven by a CAMrII promoter, approximately 9-12 months old, were treated intraperitoneally (I.P.) for 21 consecutive days, […], or Dimethyl sulfoxide (DMSO) (n=7).
Then, blinded, independent observers reviewed images of the overnight shredding and the average quality scores were calculated.
For nest shredding, Mann-Whitney analysis was used within groups, between timepoints, and Kruskal-Wallis analysis was used between treatment groups. For open-field studies, : ordinary one-way ANOVA or Student's I test was used. […]
Blinded independent observers reviewed images of the overnight shredding and the average quality scores were calculated.

[2] = test system: Tauopathy rTG4510 mice expressing human P301L tau; assay: Open-field behavior; assay type: in vivo, mouse
Protocol: (§1) Tauopathy rTG4510 mice (i.e., a mouse model that clinically manifest a tauopathy), expressing human P301L tau driven by a CAMrII promoter, approximately 9-12 months old, were treated intraperitoneally (I.P.) for 21 consecutive days, with 2.5 mg/kg (n=6) BK40197, 5.0 mg/kg (n=6) BK40197, or Dimethyl sulfoxide (DMSO) (n=7).
Open-field behavior was assessed in an open-field apparatus where animals were tracked by photocell beams along the arena floor for 60 minutes. Data were collected and analyzed for total distance traveled (cm), total time spent moving (sec), and velocity (distance/time) during the 60-minute trial. A center zone was digitally defined in the software, in the center of the apparatus, and center zone entries during the 60-minute trial were recorded.
For nest shredding, Mann-Whitney analysis was used within groups, between timepoints, and Kruskal-Wallis analysis was used between treatment groups. For open-field studies, : ordinary one-way ANOVA or Student's I test was used.

[3] = target: T1, phosphorylated DDR1 (pDDR1 Tyr513, 296) (Mus musculus, UniProt Q03146); assay: Western blot of phosphorylated DDR1; assay type: in vivo, mouse (rTG4510); details: vs DMSO, normalized to actin
T1 construct: Samples collected from DMSO, 2.5 mg/kg-, and 5.0 mg/kg-treated animals were electrophoresed; from tissue; the ELISA samples were total brain lysates
T1 sequence (Q03146 20-911): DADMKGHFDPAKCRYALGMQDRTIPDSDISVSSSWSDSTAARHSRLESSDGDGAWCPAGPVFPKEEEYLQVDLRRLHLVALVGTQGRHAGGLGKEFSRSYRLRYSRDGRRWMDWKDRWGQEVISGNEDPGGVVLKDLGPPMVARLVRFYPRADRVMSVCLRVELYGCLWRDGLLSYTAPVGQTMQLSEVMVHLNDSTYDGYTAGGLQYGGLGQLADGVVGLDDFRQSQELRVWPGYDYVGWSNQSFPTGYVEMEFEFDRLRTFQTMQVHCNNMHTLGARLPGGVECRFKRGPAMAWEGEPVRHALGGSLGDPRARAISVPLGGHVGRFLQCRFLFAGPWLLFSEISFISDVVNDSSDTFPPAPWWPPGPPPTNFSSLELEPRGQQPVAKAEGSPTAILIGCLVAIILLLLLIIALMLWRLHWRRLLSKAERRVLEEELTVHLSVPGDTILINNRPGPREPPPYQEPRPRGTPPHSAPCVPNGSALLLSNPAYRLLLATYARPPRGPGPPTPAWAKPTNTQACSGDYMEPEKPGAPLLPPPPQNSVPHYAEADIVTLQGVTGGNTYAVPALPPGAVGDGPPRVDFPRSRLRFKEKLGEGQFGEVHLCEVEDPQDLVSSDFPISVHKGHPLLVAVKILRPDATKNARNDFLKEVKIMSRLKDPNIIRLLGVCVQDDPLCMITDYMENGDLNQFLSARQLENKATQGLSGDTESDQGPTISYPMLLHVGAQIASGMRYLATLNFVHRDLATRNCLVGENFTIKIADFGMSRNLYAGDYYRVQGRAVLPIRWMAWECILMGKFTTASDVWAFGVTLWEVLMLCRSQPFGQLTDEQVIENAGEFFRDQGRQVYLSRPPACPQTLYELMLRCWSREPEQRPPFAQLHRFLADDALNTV

p-Tau (Ser396) = assay: pTau Ser396 ELISA of total brain lysates; assay type: in vivo, mouse (rTG4510, expressing human P301L tau); details: for reduction in pTau Ser396: vs DMSO
Protocol: as §1
pTau Ser396 (Invitrogen, Cat. No. KHB7031, Carlsbad, Calif.) were performed according to manufacturer's protocol on samples collected from DMSO, 2.5 mg/kg-, and 5.0 mg/kg-treated animals. Samples for ELISA were total brain lysates extracted in IX STEN buffer.

p-Tau AT180 (Thr231) = assay: Western blot of p-Tau AT180 (Thr231); assay type: in vivo, mouse (rTG4510, expressing human P301L tau); details: 2.5 mg/kg; vs DMSO
Protocol: as §1
(§2) Samples collected from DMSO, 2.5 mg/kg-, and 5.0 mg/kg-treated animals were electrophoresed in a NuPAGE 10% Bis-Tris gel and transferred to a nitrocellulose membrane. Membranes were then probed for total humnan tau (HT-7 antibody and Tau-5 antibody) and phospho-tau (pTau AT180 antibody and pTau AT8 antibody), as well as actin, and treated with an anti-mouse secondary antibody. before exposure using SuperSignal West Dura (Thermo Fisher Scientific, Waltham, Mass.) substrates. Some animials were excluded from analysis due to low transgene expression.

[4] = test system: p-Tau AT8 (Ser202, Thr205); assay: Western blot of p-Tau AT8 (Ser202, Thr205); assay type: in vivo, mouse (rTG4510, expressing human P301L tau); details: 2.5 mg/kg; vs DMSO
Protocol: as §1, §2

[5] = test system: B35 rat neuroblastoma cells; assay: Lactate dehydrogenase (LDH) assay, cell toxicity; assay type: cell-based; details: 5 hours, concentration given in the value
Protocol: (§3) Rat neuroblastoma B35 cells were grown in Dulbecco's Modified Eagle's Medium (DMEM) with 10% Fetal Bovine Serum (FBS) and 1% penicillin/streptomycin and incubated at 37° C. with 5% CO2. For the experiments, cells were transferred to 12-well plates (Cat. #150628, ThermoFisher, Waltham, Mass.) and grown to at least 70% confluence. Transient transfection was performed with 3pg P301L tau (Cat. #30145, Addgene) cDNA or 3pg human a-synuclein cDNA using Fugene HD transfection reagent (Cat. #E2311, Promega, Madison Wis.) for 24 hours. Cells were treated with ImM, I00pM, 10pM, IpM, 0.lIM, 0.01pMl, and 0.001pM dissolved in DMSO or an equivalent SuL of DMSO for 5 hours. Cell culture media was collected and cells were harvested using sodium-tris, EDTA, NP-40 (STEN) buffer and centrifuged at 10,000×g for 20 minutes at 4′C and supernatant was collected. Cell viability was determined via lactate dehydrogenase assay (Cat. #88954, Thermofisher) and MTT assay (Cat. #V13154, Thennofisher). Protein was extracted by removing culture medium and adding 0.2 ml lx STEN buffer (50 mM Tris (pH 7.6), 150 mM NaCl, 2 mM EDTA, 0.2% NP-40, 0.2% BSA, 20 mM PMSF and protease cocktail inhibitor) to cell layer and incubated on ice for 10 minutes. The bottom of the well was scraped and allowed to incubate on ice for an additional 10 minutes. Cell lysates were collected, stored at -80° C., and used for additional analyses.
(§4) Compound 1 (BK5018), Compound 2 (BK5026), Compound 3 (BK5029), Compound 4 (BD5040), Compound 6 (CL2-296). Compound 7 (CL-2-287-1) and Compound 8 (CL-2-287-2) with molecular weights of 284, 339.265, 264, 339, 269 and 247 gimol, respectively, were diluted in Dimethyl Sulfoxide (DMSO) to final concentrations of 100 pM, 10 µM, 1 pM, 0.1 pM, 0.01 pM, and 0.001 pM. Drugs were stored at −80° C.
Cellular cytotoxicity was quantitatively measured by assessment of LDH, a cytosolic enzyme that is released from damaged cells into the cellular media, after exposure to the drug 5 hours after initial dosage. The cell culture media was collected, and an aliquot was coupled with a lactate and NAD+. LDH catalyzes the reaction that converts lactate into pyruvate to produce NADH. NADH, in turn, reduces a tetrazolium salt (NT) into a red fornazan product. The amount of LDH in the media is proportional to the amount of formazan which was measured at 490 nn. The absorbance at 680 nm, to measure the background signal from the instrument, was subtracted from the absorbance at 490 nm to calculate the LDH activity. CelfCulture

[6] = test system: B35 rat neuroblastoma cells; assay: MTT assay, cell viability; assay type: cell-based; details: 5 hours, concentration given in the value
Protocol: as §3, §4
To measure cell viability, cells were incubated with 500 pL of Dulbecco's Modified Eagle's Medium (DMEf) containing 50 pL of (3-[4,5-dimethylthiazol-2-yl]-2,5-diphenyl-tetrazolium bromide (ivT)) for 5 hours at 37° C. and 5% CO2. The media was aspirated so that 125 uL of media remained. The formazan salts were dissolved in 250 uL of DMSO. Absorbance was read against a blank containing 125 uL of media and MTT, and 250 uL of DMSO at 570 mn.

tau = assay: Tau ELISA of whole brain lysates from rTG4510 mice (CL-287-2); assay type: in vivo, mouse (rTG4510, expressing human P301L Tau); details: 5 mg/kg; 12 month old rTG4510 mice
Protocol: Tauopathy rTG4510 mice expressing human P301L Tau driven by CAMIII were treated I.P. for 7 or 21 consecutive days with 1.25 mg/kg, 2.5 mg/kg, 5.0 mg/kg of BK40143 or Dimethyl sulfoxide (DMSO).
pTau Ser396 (Invitrogen, KHB7031) ELISA was performed according to manufacturer's protocol on samples collected from DMSO and 2.5mgkg. S.Omg′kg, and 10 mg/kg treated mice. Samples were total brain lysates extracted in lX STEN buffer. Ordinary one-way ANOVA or Student's ! test was used. * P<0.05

SMILES	nesting raw scores (nesting qualitative score) ([1]; vs 0 weeks (Mann-Whitney P=0.09) and vs DMSO (Kruskal-Wallis P=0.06))	nesting mean difference scores ([1]; vs DMSO (Kruskal-Wallis P=0.06))	overall motor ability (open field) ([2]; 5.0 mg/kg I.P., 60 minutes open field)	open-field distance travelled ([2]; 5.0 mg/kg, sixty minutes, vs DMSO (ANOVA p=0.29))	open-field time spent moving ([2]; 5.0 mg/kg, sixty minutes, vs DMSO (ANOVA p=0.32))	hyperactivity/anxiety by observed center zone entries ([2]; 5.0 mg/kg, vs DMSO)	open-field velocity ([2]; 5.0 mg/kg, vs DMSO)	reduction in phosphorylated DDR1 (pDDR1 Tyr513, 296) ([3]; 2.5 mg/kg)	reduction in phosphorylated DDR1 (pDDR1 Tyr513, 296) ([3]; 5.0 mg/kg)	reduction in pTau Ser396 (p-Tau (Ser396); 2.5 mg/kg)	reduction in pTau Ser396 (p-Tau (Ser396); 5.0 mg/kg)	p-Tau (Ser396) levels (p-Tau (Ser396); dose dependent, 2.5 and 5.0 mg/kg, quantitative ELISA)	reduction in the ratio of p-Tau (Thr231) (AT180) to total Tau (p-Tau AT180 (Thr231))	reduction in the ratio of p-Tau AT8 (Ser202, Thr205) to total Tau [4]	cell toxicity, as measured by LDH assay [5]	cell toxicity, as measured by MTT assay [6]	tau in whole brain lysates (tau)
Cc1cccc(-c2cc3nccc(N4CCOCC4)c3s2)c1 [BK40197, 4-(2-(m-Tolyl)thieno[3,2-b]pyridin-7-yn)morpholine]	nesting performance improved; also recorded: increase in performance	nesting performance improved; also recorded: increase in performance	does not alter overall motor ability	non-significant reduction	non-signicant reduction; also recorded: non-significant reduction	no sign of hyperactivity/anxiety; also recorded: no sign of hyperactivity % anxiety	no difference in velocity	22%	21%	11%	23%	significantly reduces	22%	14%			
O=C(O)c1ccccc1Nc1cccc(Cl)c1 [CL-2-287-2, 2-((3-Chlorophenyl)amino)benzoic acid]															at 100 uM or less did not show increased cell toxicity; also recorded: at 100 pM or less did not show increased cell toxicity	at 10 pM or less did not show increased cell toxicity	significant reduction
